Assay [1] has as its target T1, c-Jun (Homo sapiens, UniProt P05412).
T1 construct: purchased Abcam
The experiment in a line: Binding kinetics by biolayer interferometry (BLI), Octet HTX. As to conditions: 1:1 model; for koff: read-out: K off, binding to c-Jun; for kon: read-out: K on, binding to c-Jun. As for the experimental part:
The binding kinetics of the peptides and full-length recombinant CAPER (R&D Systems, Minneapolis, MN) with the c-Jun (Abcam, Cambridge, MA) were determined using biolayer interferometry (BLI) on the Octet HTX system (Pall ForteBio, Fremont, CA). Amine Reactive 2nd Generation biosensors (cat #18-5092, Pall ForteBio) were activated with 1-Ethyl-3-[3-dimethylaminopropyl] carbodiimide hydrochloride and N-hydroxysulfosuccinimide (EDC/NHS) (Amine Coupling Kit II, Cat #ACK-001-025, Sierra Sensors, Billerica, MA) and conjugated with an anti-his tag antibody. The reaction was then quenched with 1M ethanolamine (Amine Coupling Kit II, Cat #ACK-001-025, Sierra Sensors). His-tagged recombinant c-Jun was then bound to the tips. The peptides were tested at a series of 2-fold dilutions including a buffer blank. The binding of full-length recombinant CAPER was also tested. Association and dissociation steps were performed for 900s each in 1×HBS-EP+ buffer (cat #BR100669, GE Healthcare Lifesciences, Pittsburgh, PA) supplemented with 450 mM NaCl (Sigma). The background was subtracted from each run and kinetics data was analyzed using ForteBio's Data Analysis Software version 10.0.3.1 using a 1:1 model.
On the technique in general: In BLI a coated tip is dipped into the sample, and binding shifts an interference pattern.

In a further assay the target is T2, Estrogen Receptor α (Homo sapiens, UniProt P03372).
T2 sequence (P03372 1-595): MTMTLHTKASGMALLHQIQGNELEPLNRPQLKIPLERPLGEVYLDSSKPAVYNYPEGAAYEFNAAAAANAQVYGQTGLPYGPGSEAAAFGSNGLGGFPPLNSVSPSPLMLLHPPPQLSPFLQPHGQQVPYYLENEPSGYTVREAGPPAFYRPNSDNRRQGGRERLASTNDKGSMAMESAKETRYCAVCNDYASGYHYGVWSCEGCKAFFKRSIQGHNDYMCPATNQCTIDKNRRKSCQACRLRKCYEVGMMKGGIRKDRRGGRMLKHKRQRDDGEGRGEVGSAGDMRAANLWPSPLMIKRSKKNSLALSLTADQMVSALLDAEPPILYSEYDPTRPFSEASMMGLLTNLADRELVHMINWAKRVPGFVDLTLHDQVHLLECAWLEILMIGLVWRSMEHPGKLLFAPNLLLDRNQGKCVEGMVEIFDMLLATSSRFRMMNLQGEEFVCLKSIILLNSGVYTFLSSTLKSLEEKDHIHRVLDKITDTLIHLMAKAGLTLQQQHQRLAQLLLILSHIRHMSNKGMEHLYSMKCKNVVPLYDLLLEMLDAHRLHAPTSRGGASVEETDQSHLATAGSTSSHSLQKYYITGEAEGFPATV
The experiment in a line: Binding kinetics (BLI) to Estrogen Receptor α. As to conditions: for koff: read-out: K off, binding to Estrogen Receptor α; for kon: read-out: K on, binding to Estrogen Receptor α.

A further assay concerns the target T3, ERα (Homo sapiens, UniProt P03372).
T3 sequence (P03372 1-595): T2 sequence (P03372 1-595)
Put plainly: Inhibition of full-length recombinant CAPER binding to ERα.

Assay [2] concerns BT549 cells. Put plainly: Cell count after 7 day treatment. As to conditions: BT549, 20 μM daily, 7 days, vs DMSO and TAT controls. The assay is classed as cell-based. As for the experimental part: (§1) MDA-MB-231, BT549, and MCF10A cells were plated onto 10 cm plates at 50,000 cells per plate, 100,000 cells per plate and 25,000 cells, respectively. The cells were allowed to adhere overnight, the next day cells were with 20 μM of CAPER peptides along with a DMSO and TAT only controls. Cells were dosed daily for 7 days. At the end of the 7 day dosing period, floating cells were collected and adherent cells were trypsinized and counted via a hemocytometer.

The test system of assay [3] is MCF10A cells. Put plainly: Cell count after 7 day treatment. As to conditions: MCF10A non-tumorigenic, 20 μM daily, 7 days, vs DMSO and TAT controls. The class given is cell-based. As for the experimental part:
as §1

Assay [4] relates to MDA-MB-231 cells. The experiment in a line: Cell count after 7 day treatment. The assay is classed as cell-based. As to conditions: MDA-MB-231, 20 μM daily, 7 days, vs DMSO and TAT controls. As for the experimental part:
as §1

The subject of assay [5] is MCF7 cells. Put plainly: Cell count after 7 day treatment with and without estradiol. The class given is cell-based. The conditions noted are these: MCF7, 20 μM, 7 days, in the presence of estrogen. As for the experimental part: (§2) MCF7 cells were switched to phenol free DMEM (cat #, 11054-020, Life Technologies), with 10% charcoal stripped FBS (cat #A33821-01, Life Technologies), 24 hrs prior to plating. After the starvation period, the cells were plated onto mm plates at cells/plate and allowed to adhere overnight. The next day cells were dosed with 20 μM of CAPER peptides along with a DMSO and TAT only controls with and without estradiol (E2) (cat #, Sigma). Cells were pre-treated with the peptide 4 hrs before the E2 was added. Cells were dosed daily for 7 days. At the end of the 7 day dosing period, floating cells were collected and adherent cells were trypsinized and counted via a hemocytometer

Assay [6] concerns BT549 cells. Put plainly: Apoptosis assays (Muse Caspase 3/7 and Annexin V). The assay is classed as cell-based. The conditions noted are these: BT549, 20 μM, 7 days. As for the experimental part:
(§3) Apoptosis was evaluated using both a Muse Caspase 3/7 kit (cat #MCH100108, EMD Millipore) and Muse Annexin V kit (Millipore cat #). Cells were treated for 7 days as described elsewhere herein, at the end of the 7 day dosing period, floating cells were collected and attached cells were washed 1× with PBS and then trypsinized with 0.05% trypsin. Cells were collected and combined with the floating cells. Cells were then counted and diluted to 20,000 cells/mL. For the caspase assay, 50 μL of cells were then incubated with the Muse Caspase 3/7 reagent at 37° C. for 30 min. After incubation 5 μL of 7-ADD dye was added and incubated for 5 min at room temperature. Cells were then analyzed on the Muse Cell Analyzer (Millipore). For the Annexin V assay, 100 μL of cells was then added to 100 μL of Annexin V reagent for 30 min at room temperature. Cells were then analyzed on the Muse Cell Analyzer (Millipore).

Assay [7] relates to MDA-MB-231 cells. The experiment in a line: Apoptosis assays (Muse Caspase 3/7 and Annexin V). The class given is cell-based. As to conditions: MDA-MB-231, 20 μM, 7 days. As for the experimental part: as §3
The subject of assay [8] is MCF10A cells. The experiment in a line: Apoptosis assay (Annexin V). As to conditions: 20 μM, 7 days, vs DMSO and TAT controls. The assay is classed as cell-based. As for the experimental part:
as §3

Assay [9] relates to MCF7 cells. The experiment in a line: Apoptosis assays (Muse Caspase 3/7 and Annexin V). The conditions noted are these: MCF7, 20 μM, 7 days, in the presence of estrogen. The assay is classed as cell-based. As for the experimental part: as §2, §3
The test system of assay [10] is BT549 cells. Put plainly: Cell cycle assay, nocodazole synchronized cells. The class given is cell-based. The conditions noted are these: BT549, 20 μM, 7 days. As for the experimental part:
(§4) MDA-MB-231 and BT549 cells were synchronized using nocodazole (cat #Sigma-Aldrich) for 24 hours. The floating cells were then aspirated off and the plate was rinsed with media to collect the loosely attached cells (G2/M fraction). The cells were then plated as described above. A fraction of the treated cells was processed for cell cycle to confirm synchronization. Cells were then treated for 7 days as described above, at the end of the 7 day dosing period, floating cells were collected and attached cells were washed 1× with PBS and then trypsinized with 0.05% trypsin. Cells were collected and combined with the floating cells. Cells were counted and diluted according to the Muse Cell Cycle Kit (cat #MCH100106, EMD Millipore) instructions and samples were then read on the Muse Cell Analyzer.

Assay [11] has as its system MDA-MB-231 cells. Put plainly: Cell cycle assay, nocodazole synchronized cells. The assay is classed as cell-based. The conditions noted are these: MDA-MB-231, 20 μM, 7 days. As for the experimental part: as §4
The target in assay [12] is T1, c-Jun. Put plainly: BLI competition assay: full-length CAPER binding to peptide-saturated c-Jun. The conditions noted are these: c-Jun saturated with peptide at 10x KD; compared to CAPER binding without peptide. As for the experimental part: Competition assays were determined using BLI on the Octet HTX system (Pall ForteBio, Fremont, CA). Amine Reactive 2nd Generation biosensors (cat #18-5092, Pall ForteBio) were activated with 1-Ethyl-3-[3-dimethylaminopropyl] carbodiimide hydrochloride and N-hydroxysulfosuccinimide (EDC/NHS) (Amine Coupling Kit II, Cat #ACK-001-025, Sierra Sensors, Billerica, MA) and conjugated with an anti-his tag antibody. The reaction was then quenched with 1M ethanolamine (Amine Coupling Kit II, Cat #ACK-001-025, Sierra Sensors). Recombinant c-Jun containing a his-tag was then bound to the tips. The peptides were allowed to saturate the receptor at a concentration of 10× the KD of each peptide. After receptor saturation binding of full-length CAPER to the receptor was measured and the signal was compared back to full-length CAPER binding to the receptor in the absence of the peptide. Binding steps were performed for 900s each in 1× HBS-EP+ buffer (cat #BR100669, GE Healthcare Lifesciences, Pittsburgh, PA) supplemented with 450 mM NaCl (Sigma). The background was subtracted from each run and the signal was represented as a % inhibition compared to full-length CAPER binding in the absence of the peptide.

The mark [13] stands for this setting: his-tagged c-Jun on anti-his tips.

Where no end group is shown, it is not given here. The star is where a group is joined. Biotin = O=C1N[C@H]2[C@H](CS[C@H]2CCCCC(=O)*)N1

Usually Kd stands for the equilibrium constant for the complex coming apart.

T1 sequence (P05412 whole entry): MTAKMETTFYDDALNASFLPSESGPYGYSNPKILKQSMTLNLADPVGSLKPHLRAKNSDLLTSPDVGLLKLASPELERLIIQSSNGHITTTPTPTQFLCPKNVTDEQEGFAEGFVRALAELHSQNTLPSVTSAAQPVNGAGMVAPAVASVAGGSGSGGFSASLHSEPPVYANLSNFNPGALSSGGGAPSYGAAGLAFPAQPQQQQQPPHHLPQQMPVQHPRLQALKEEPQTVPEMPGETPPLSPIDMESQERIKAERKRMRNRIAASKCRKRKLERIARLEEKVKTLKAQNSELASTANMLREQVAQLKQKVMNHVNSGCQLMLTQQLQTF

Consider “Biotin-RLQLMARLAEGTGLQIPPAAQQALQMSGSLAFGAVADLQTRLSQQ (N-terminus assumed) [CAPER peptide HCC1.3]”, for which the koff at c-Jun [1] is 0.000337 s⁻¹; at Estrogen Receptor α, 0.000115 s⁻¹. The results for the kon at c-Jun [1] and on Estrogen Receptor α were 37900 M⁻¹ s⁻¹ and 25400 M⁻¹ s⁻¹, respectively. Also, the “Binding of full-length recombinant CAPER to ERα” value on ERα is reported as “alter the binding”. Further, the Cell number entry in the assay with BT549 cells [2], with MDA-MB-231 cells [4] and in the assay with MCF7 cells [5] was “significant decrease” in each case. Further, the Cell count entry in the assay with MCF10A cells [3] was “no significant change”. Further, the “Early apoptotic and apoptotic dead cells” value in the assay on BT549 cells [6], with MDA-MB-231 cells [7] and in the assay with MCF7 cells [9] was “significant increase” in each case. For the same molecule, the Live cells entry in the assay with BT549 cells [6], in the assay with MDA-MB-231 cells [7] and in the assay on MCF7 cells [9] was “significant decrease” each time. Moreover, in the assay on MCF10A cells [8], the Apoptotic cells result is reported as “no significant change”. The “Effect on cell cycle” value with BT549 cells [10] and in the assay with MDA-MB-231 cells [11] was “no effect” throughout.
In the case of “Biotin-RLQLMARLAEGTGLQIPPAAQQALQMSGSLAFGAVAEFSFVIDLQ (N-terminus assumed) [CAPER peptide HCC1.4]”, the values for the koff at c-Jun [1] and on Estrogen Receptor α were 0.00098 s⁻¹ and 0.00172 s⁻¹, respectively. Besides, the kon at c-Jun [1] turned out to be 38300 M⁻¹ s⁻¹; at Estrogen Receptor α, 57100 M⁻¹ s⁻¹. Also, the “Binding of full-length recombinant CAPER to ERα” value on ERα was “alter the binding”. The Cell number entry in the assay with BT549 cells [2], in the assay on MDA-MB-231 cells [4] and in the assay with MCF7 cells [5] was “significant decrease” in each case. For the same molecule, the Cell count entry with MCF10A cells [3] is given as “no significant change”. The “Early apoptotic and apoptotic dead cells” value in the assay with BT549 cells [6], in the assay on MDA-MB-231 cells [7] and in the assay with MCF7 cells [9] was “significant increase” throughout. Moreover, the Live cells entry in the assay with BT549 cells [6], with MDA-MB-231 cells [7] and in the assay with MCF7 cells [9] was “significant decrease” in each case. For the same molecule, the Apoptotic cells result with MCF10A cells [8] was “no significant change”. The “Effect on cell cycle” value in the assay on BT549 cells [10] and in the assay with MDA-MB-231 cells [11] was “no effect” each time.
As for “VGDALQGLRLFSTQASIGAQMEQLAAQPLRAGQMLQLAQASPLRT [CAPER scrambled peptide, scrambled control peptide, reference compound]”, the “KD, binding to c-Jun” value at c-Jun [1] (setting [13]) is “could not be determined”. Moreover, the “Inhibition of full-length recombinant CAPER binding to c-Jun” value on c-Jun [12] is “no significant change”.
As for “YGRKKRRQRRR [TAT only control, reference compound]”, the “KD, binding to c-Jun” value on c-Jun [1] (setting [13]) was “could not be determined”.

B1: Recombinant Full-Length CAPER HCC1.3: full-length recombinant CAPER (R&D Systems), isoform HCC1.3 (protein)
chain: MADDIDIEAMLEAPYKKDENKLSSANGHEERSKKRKKSKSRSRSHERKRSKSKERKRSRDRERKKSKSRERKRSRSKERRRSRSRSRDRRFRGRYRSPYSGPKFNSAIRGKIGLPHSIKLSRRRSRSKSPFRKDKSPVREPIDNLTPEERDARTVFCMQLAARIRPRDLEEFFSTVGKVRDVRMISDRNSRRSKGIAYVEFVDVSSVPLAIGLTGQRVLGVPIIVQASQAEKNRAAAMANNLQKGSAGPMRLYVGSLHFNITEDMLRGIFEPFGRIESIQLMMDSETGRSKGYGFITFSDSECAKKALEQLNGFELAGRPMKVGHVTERTDASSASSFLDSDELERTGIDLGTTGRLQLMARLAEGTGLQIPPAAQQALQMSGSLAFGAVADLQTRLSQQTEASALAAAASVQPLATQCFQLSNMFNPQTEEEVGWDTEIKDDVIEECNKHGGVIHIYVDKNSAQGNVYVKCPSIAAAIAAVNALHGRWFAGKMITAAYVPLPTYHNLFPDSMTATQLLVPSRR
For B1, in the assay with c-Jun [1], the “K off, binding to c-Jun” value worked out at 5.66e-05 s⁻¹ and the “K on, binding to c-Jun” value came out at 312000 M⁻¹ s⁻¹. Moreover, binding in the assay with c-Jun [1] (setting [13]) was put at a Kd of 0.18 nM. Besides, in the assay with Estrogen Receptor α, the “K off, binding to Estrogen Receptor α” value was 2.34e-05 s⁻¹ and the “K on, binding to Estrogen Receptor α” value was 937000 M⁻¹ s⁻¹.

Values taken from patent US12201671B2, “Polypeptides for treatment of cancer” (Saint Joseph's University, priority 2019, dated 2025).
